In the assay the test system is MIA PaCa-2 cells. Briefly: In vitro anti-proliferative activity against MIA PaCa-2 cells. The format is cell-based. The conditions noted are these: Homo sapiens, viability 72 h after dosing by intracellular ATP content, versus DMSO group. As to the method:
Example 50. In Vtro Anti-Proliferative Activity of Compounds of the Present Invention Against MIA PaCa-2 Cells
MIA PaCa-2 cells were seeded on a 96-well plate at 3000 cells/well. After overnight adherence culture, DMSO or the compounds serially diluted 1:5 from […] were added. The viability was assessed 72 h after dosing by measuring the intracellular ATP content. The inhibition percentages of viable cells by the compounds were calculated by comparing with the DMSO group, and the IC50 values were calculated.

What is called IC50 is the point on the concentration scale where inhibition reaches its midpoint. A lower IC50 goes with greater potency. `N[C@@H]1c2cccnc2CC12CCN(c1cnc3c(N4CCN5C(=O)CCc6cc(F)cc4c65)n[nH]c3n1)CC2` [Compound 16] registered an IC50 of 9.3 nM. In other words, the single-digit nanomolar range.

`N[C@@H]1c2cc(O)ccc2CC12CCN(c1cnc3c(N4CCN5C(=O)CCc6cccc4c65)n[nH]c3n1)CC2` [Compound 21] returned an IC50 of 11.3 nM.

The compound `N[C@@H]1c2cccnc2CC12CCN(c1cnc3c(N4CCN5C(=O)CCc6cccc4c65)n[nH]c3n1)CC2` [Compound 12] displayed an IC50 of 5.8 nM.

`COc1cccc2c1CC1(CCN(c3cnc4c(N5CCN6C(=O)CCc7ccc(F)c5c76)n[nH]c4n3)CC1)[C@@H]2N` [Compound 38] registered an IC50 of 15.6 nM.

`N[C@@H]1c2ccccc2CC12CCN(c1cnc3c(N4CCN5C(=O)CCc6cccc4c65)n[nH]c3n1)CC2` [Compound 3] displayed an IC50 of 5.1 nM.

The compound `N[C@@H]1c2cc(O)ccc2CC12CCN(c1cnc3c(N4CCN5C(=O)CCc6c(F)ccc4c65)n[nH]c3n1)CC2` [Compound 45] gave an IC50 of 11.5 nM.

For `N[C@@H]1c2cc(O)ccc2CC12CCN(c1cnc3c(N4CCN5C(=O)CCc6cc(F)cc4c65)n[nH]c3n1)CC2` [Compound 40], the midpoint of inhibition, the IC50, lay at 18.1 nM.

`Cc1ccc2c(c1)[C@@H](N)C1(CCN(c3cnc4c(N5CCN6C(=O)CCc7ccc(F)c5c76)n[nH]c4n3)CC1)C2` [Compound 36] had an IC50 of 12.5 nM.

The compound `N[C@@H]1c2cccnc2CC12CCN(c1cnc3c(N4CCn5c(=O)ccc6cccc4c65)n[nH]c3n1)CC2` [Compound 14] displayed an IC50 of 7.2 nM.

`N[C@@H]1c2ccccc2CC12CCN(c1cnc3c(N4CCn5c(=O)ccc6cccc4c65)n[nH]c3n1)CC2` [Compound 6] showed an IC50 of 6.5 nM. This IC50 and that of the compound before are within 1.5-fold of each other.

In turn, `N[C@@H]1c2ccccc2CC12CCN(c1cnc3c(N4CCN5C(=O)CCc6c(F)ccc4c65)n[nH]c3n1)CC2` [Compound 10] showed a 50% inhibitory concentration (IC50) of 12.1 nM.

Compound `N[C@@H]1c2ccc(Cl)nc2CC12CCN(c1cnc3c(N4CCN5C(=O)CCc6cccc4c65)n[nH]c3n1)CC2` [Compound 27] showed an IC50 of 15.9 nM.

Regarding `N[C@@H]1c2cc(O)ccc2CC12CCN(c1cnc3c(N4CCN5C(=O)CCc6ccc(F)c4c65)n[nH]c3n1)CC2` [Compound 35], the midpoint of inhibition, the IC50, lay at 17.3 nM. This IC50 and that of the compound before are within 1.5-fold of each other.

`N[C@@H]1c2ccccc2CC12CCN(c1cnc3c(N4CCN5CCCc6cccc4c65)n[nH]c3n1)CC2` [Compound 1]: it took 35.1 nM to reach half-maximal inhibition (IC50).

Turning to `N[C@@H]1c2cc(F)ccc2CC12CCN(c1cnc3c(N4CCN5C(=O)CCc6cc(F)cc4c65)n[nH]c3n1)CC2` [Compound 42], the IC50 is 10.1 nM.

Regarding `Cc1ccc2c(c1)[C@@H](N)C1(CCN(c3cnc4c(N5CCN6C(=O)CCc7cc(F)cc5c76)n[nH]c4n3)CC1)C2` [Compound 41], the IC50 is 13.5 nM.

`COc1cccc2c1CC1(CCN(c3cnc4c(N5CCN6C(=O)CCc7cccc5c76)n[nH]c4n3)CC1)[C@@H]2N` [Compound 24] registered a half-inhibitory concentration (IC50) of 9.6 nM.

`N[C@@H]1c2ccccc2CC12CCN(c1cnc3c(N4CCN5C(=O)CCc6cc(F)cc4c65)n[nH]c3n1)CC2` [Compound 9]: the IC50 amounted to 8.9 nM.

The compound `N[C@@H]1c2ccc(F)nc2CC12CCN(c1cnc3c(N4CCN5C(=O)CCc6cccc4c65)n[nH]c3n1)CC2` [Compound 26] registered an IC50 of 8.1 nM.

In turn, `Cc1ccc2c(c1)[C@@H](N)C1(CCN(c3cnc4c(N5CCN6C(=O)CCc7c(F)ccc5c76)n[nH]c4n3)CC1)C2` [Compound 46] displayed an IC50 of 14 nM.

The compound `N[C@@H]1c2cc(F)ccc2CC12CCN(c1cnc3c(N4CCN5C(=O)CCc6ccc(F)c4c65)n[nH]c3n1)CC2` [Compound 37] showed an IC50 of 13.9 nM.

`NC1c2cccnc2CC12CCN(c1cnc3c(N4CCN5C(=O)CCc6c(F)ccc4c65)n[nH]c3n1)CC2` (stereo not drawn) [Compound 17] yielded an IC50 of 10.8 nM.

The compound `COc1cccc2c1CC1(CCN(c3cnc4c(N5CCN6C(=O)CCc7c(F)ccc5c76)n[nH]c4n3)CC1)[C@@H]2N` [Compound 48] registered an IC50 of 19.2 nM.

Take `N[C@@H]1c2cc(F)ccc2CC12CCN(c1cnc3c(N4CCN5C(=O)CCc6c(F)ccc4c65)n[nH]c3n1)CC2` [Compound 47]: the IC50 turned out to be 9.5 nM. Against the preceding compound, the IC50 is about 2-fold lower.

(Values after patent US20250059206A1, “FUSED RING COMPOUND ACTING AS SHP2 INHIBITOR” (priority 2021, published 2025).)
